Where a name gives a salt, the structure may show the parent alone.
What was measured:
p38 alpha = target: T1, p38 alpha (Homo sapiens, UniProt Q16539); experiment: P38 alpha enzyme inhibition assay (Alphascreen kinase activity assay); type: biochemical; details: 100 pM p38 alpha, 2 hours preincubation at 25° C., 250 μM ATP, ATF-2 fusion protein; read-out: p38α inhibition
T1 construct: purchased Invitrogen PV3304
Method in brief: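 Phosphorylation of ATF-2 fusion protein (0.3 μg/ml) read by AlphaScreen with anti-phospho-ATF2 antibody after 1 h kinase reaction at 25 °C, initiated by 250 μM ATP. Compounds first incubated 2 h at 25 °C with 100 pM p38 alpha in pH 7.5 HEPES buffer, 1% DMSO. IC50 derived from concentration-response data.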

[1] = tested on: Peripheral Blood Mononuclear Cells (PBMCs), TNFα release; experiment: LPS-stimulated PBMC TNFα release assay; type: cell-based; details: human PBMC, LPS (10 ng/ml), 18 h, compound 1 h before LPS; read-out: LPS-stimulated PBMC TNFα release inhibition
Procedure: LPS-Stimulated PBMC TNFα Release Assay
Peripheral Blood Mononuclear Cells (PBMCs) were isolated from healthy human volunteer blood using a standard density gradient centrifugation technique. Citrated blood was placed onto Histopaque™ and centrifuged. The PBMCs were removed from the density gradient interface and washed in phosphate buffered saline (PBS). The PBMCs were suspended in RPMI 1640 medium (without serum), dispensed into a 96-well plate and incubated at 37° C. for 3 h in a humidified incubator. After incubation, the medium was replaced (with medium containing 1% foetal bovine serum) and the plate incubated at 37° C., for 1 h, in the presence of test compound or the appropriate vehicle. LPS (10 ng/ml), or an appropriate vehicle control, was then added to the cells and the plate returned to the incubator for 18 h. Cell-free supernatants were removed and assayed for TNFα levels using MSD plates on the Sector Imager 6000 (MesoScale).
A dose response curve to each test compound was performed and the effect of compound in each experiment was expressed as a percentage inhibition of the control TNFα release. Dose response curves were plotted and compound potency (IC50) was determined. Compounds were tested in at least three separate experiments.

T1 sequence (Q16539 whole entry, the tested form may be a part): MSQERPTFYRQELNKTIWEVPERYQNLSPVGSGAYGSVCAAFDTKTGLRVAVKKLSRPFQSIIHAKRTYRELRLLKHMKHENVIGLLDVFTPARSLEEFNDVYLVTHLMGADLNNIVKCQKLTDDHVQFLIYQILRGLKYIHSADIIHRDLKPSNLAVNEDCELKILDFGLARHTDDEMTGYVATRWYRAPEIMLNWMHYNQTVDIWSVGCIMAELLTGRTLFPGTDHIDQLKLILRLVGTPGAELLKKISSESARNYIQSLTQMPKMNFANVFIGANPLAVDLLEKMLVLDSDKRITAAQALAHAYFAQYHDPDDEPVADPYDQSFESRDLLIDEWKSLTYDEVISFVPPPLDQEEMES

Row | IC50 (p38 alpha) | SMILES | IC50 [1]
1 | < 1 nM | CN(C)CC(=O)NCc1nc(NC(=O)N[C@H]2CC[C@@H](Oc3ccc4nnc(C(C)(C)C)n4c3)c3ccccc32)cc(C(C)(C)C)n1 [Example 24, N-((4-(tert-Butyl)-6-(3-((1S,4R)-4-((3-(tert-butyl)-[1,2,4]triazolo[4,3-a]pyridin-6-yl)oxy)-1,2,3,4-tetrahydronaphthalen-1-yl)ureido)pyrimidin-2-yl)methyl)-2-(dimethylamino)acetamide] | > 5 nM
2 | < 1 nM | CC(C)(C)c1cc(NC(=O)N[C@H]2CC[C@@H](Oc3ccc4nnc(C5(C)CCCC5)n4c3)c3ccccc32)nc(C(=O)NCCN2CCOCC2)n1 [Example 25, 4-(tert-Butyl)-6-(3-((1S,4R)-4-((3-(1-methylcyclopentyl)-[1,2,4]triazolo[4,3-a]pyridin-6-yl)oxy)-1,2,3,4-tetrahydronaphthalen-1-yl)ureido)-N-(2-morpholinoethyl)pyrimidine-2-carboxamide] | < 1 nM
3 | 1 to 10 nM | CC(=O)OCc1nc(NC(=O)N[C@H]2CC[C@@H](Oc3ccc4nnc([C@]5(C)CCCN5C)n4c3)c3ccccc32)cc(C(C)(C)C)n1 [Example 26, (4-(tert-Butyl)-6-(3-((1S,4R)-4-((3-((S)-1,2-dimethylpyrrolidin-2-yl)-[1,2,4]triazolo[4,3-a]pyridin-6-yl)oxy)-1,2,3,4-tetrahydronaphthalen-1-yl)ureido)pyrimidin-2-yl)methyl acetate] | 1 to 5 nM
4 | < 1 nM | CN1CCC[C@@]1(C)c1nnc2ccc(O[C@@H]3CC[C@H](NC(=O)Nc4cc(C(C)(C)C)nc(CO)n4)c4ccccc43)cn12 [Example 27, 1-(6-(tert-Butyl)-2-(hydroxymethyl)pyrimidin-4-yl)-3-((1S,4R)-4-((3-((S)-1,2-dimethylpyrrolidin-2-yl)-[1,2,4]triazolo[4,3-a]pyridin-6-yl)oxy)-1,2,3,4-tetrahydronaphthalen-1-yl)urea] | < 1 nM
5 | < 1 nM | CN(C)CCNC(=O)c1nc(NC(=O)N[C@H]2CC[C@@H](Oc3ccc4nnc([C@]5(C)CCCN5C)n4c3)c3ccccc32)cc(C(C)(C)C)n1 [Example 28, 4-(tert-Butyl)-N-(2-(dimethylamino)ethyl)-6-(3-((1S,4R)-4-((3-((S)-1,2-dimethylpyrrolidin-2-yl)-[1,2,4]triazolo[4,3-a]pyridin-6-yl)oxy)-1,2,3,4-tetrahydronaphthalen-1-yl)ureido)pyrimidine-2-carboxamide] | 1 to 5 nM
6 | < 1 nM | CN1CCC[C@@]1(C)c1nnc2ccc(O[C@@H]3CC[C@H](NC(=O)Nc4cc(C(C)(C)C)nc(C(=O)NCCO)n4)c4ccccc43)cn12 [Example 29, 4-(tert-Butyl)-6-(3-((1S,4R)-4-((3-((S)-1,2-dimethylpyrrolidin-2-yl)-[1,2,4]triazolo[4,3-a]pyridin-6-yl)oxy)-1,2,3,4-tetrahydronaphthalen-1-yl)ureido)-N-(2-hydroxyethyl)pyrimidine-2-carboxamide] | < 1 nM
7 | 1 to 10 nM | CN1CCC[C@@]1(C)c1nnc2ccc(O[C@@H]3CC[C@H](NC(=O)Nc4cc(C(C)(C)C)nc(NS(C)(=O)=O)n4)c4ccccc43)cn12 [Example 30, N-(4-(tert-Butyl)-6-(3-((1S,4R)-4-((3-((S)-1,2-dimethylpyrrolidin-2-yl)-[1,2,4]triazolo[4,3-a]pyridin-6-yl)oxy)-1,2,3,4-tetrahydronaphthalen-1-yl)ureido)pyrimidin-2-yl)methanesulfonamide] | 1 to 5 nM
8 | < 1 nM | CN(C)CCNC(=O)c1nc(NC(=O)N[C@H]2CC[C@@H](Oc3ccc4nnc(C5(C)CC5)n4c3)c3ccccc32)cc(C(C)(C)C)n1 [Example 32, 4-(tert-Butyl)-N-(2-(dimethylamino)ethyl)-6-(3-((1S,4R)-4-((3-(1-methylcyclopropyl)-[1,2,4]triazolo[4,3-a]pyridin-6-yl)oxy)-1,2,3,4-tetrahydronaphthalen-1-yl)ureido)pyrimidine-2-carboxamide] | > 5 nM
9 | 1 to 10 nM | CN(C)CCNC(=O)c1nc(NC(=O)N[C@H]2CC[C@@H](Oc3ccc4nnc([C@]5(C)CCCN5)n4c3)c3ccccc32)cc(C(C)(C)C)n1 [Example 34, 4-(tert-Butyl)-N-(2-(dimethylamino)ethyl)-6-(3-((1S,4R)-4-((3-((S)-2-methylpyrrolidin-2-yl)-[1,2,4]triazolo[4,3-a]pyridin-6-yl)oxy)-1,2,3,4-tetrahydronaphthalen-1-yl)ureido)pyrimidine-2-carboxamide] | > 5 nM
10 | < 1 nM | COc1ncc(C(C)(C)C)cc1NC(=O)N[C@H]1CC[C@@H](Oc2ccc3nnc([C@@H]4CCCN4C)n3c2)c2ccccc21 [Example 35, 1-(5-(tert-Butyl)-2-methoxypyridin-3-yl)-3-((1S,4R)-4-((3-((S)-1-methylpyrrolidin-2-yl)-[1,2,4]triazolo[4,3-a]pyridin-6-yl)oxy)-1,2,3,4-tetrahydronaphthalen-1-yl)urea hydrochloride Salt] | < 1 nM
11 | 1 to 10 nM | CCOC(=O)c1nc(NC(=O)N[C@H]2CC[C@@H](Oc3ccc4nnc([C@]5(C)CCCN5C)n4c3)c3ccccc32)cc(C(C)(C)C)n1 [Example 36, Ethyl 4-(tert-butyl)-6-(3-((1S,4R)-4-((3-((S)-1,2-dimethylpyrrolidin-2-yl)-[1,2,4]triazolo[4,3-a]pyridin-6-yl)oxy)-1,2,3,4-tetrahydronaphthalen-1-yl)ureido)pyrimidine-2-carboxylate] | < 1 nM
12 | < 1 nM | C[C@H]1CCCCN1c1nnc2ccc(O[C@@H]3CC[C@H](NC(=O)Nc4cc(C(C)(C)C)nc(C(=O)NCCN(C)C)n4)c4ccccc43)cn12 [Example 37, 4-(tert-Butyl)-N-(2-(dimethylamino)ethyl)-6-(3-((1S,4R)-4-((3-((S)-2-methylpiperidin-1-yl)-[1,2,4]triazolo[4,3-a]pyridin-6-yl)oxy)-1,2,3,4-tetrahydronaphthalen-1-yl)ureido)pyrimidine-2-carboxamide] | > 5 nM
13 | < 1 nM | CNC(=O)c1nc(NC(=O)N[C@H]2CC[C@@H](Oc3ccc4nnc([C@]5(C)CCCN5C)n4c3)c3ccccc32)cc(C(C)(C)C)n1 [Example 38, 4-(tert-Butyl)-6-(3-((1S,4R)-4-((3-((S)-1,2-dimethylpyrrolidin-2-yl)-[1,2,4]triazolo[4,3-a]pyridin-6-yl)oxy)-1,2,3,4-tetrahydronaphthalen-1-yl)ureido)-N-methylpyrimidine-2-carboxamide] | < 1 nM
14 | 1 to 10 nM | CN1CCC[C@]1(C)c1nnc2ccc(O[C@@H]3CC[C@H](NC(=O)Nc4cc(C(C)(C)C)cc(C#N)n4)c4ccccc43)cn12 [Example 39, 1-(4-(tert-Butyl)-6-cyanopyridin-2-yl)-3-((1S,4R)-4-((3-((R)-1,2-dimethylpyrrolidin-2-yl)-[1,2,4]triazolo[4,3-a]pyridin-6-yl)oxy)-1,2,3,4-tetrahydronaphthalen-1-yl)urea] | < 1 nM
15 | < 1 nM | Cc1nc(NC(=O)N[C@H]2CC[C@@H](Oc3ccc4nnc([C@]5(C)CCCN5C)n4c3)c3ccccc32)cc(C(C)(C)C)n1 [Example 40, 1-(6-(tert-Butyl)-2-methylpyrimidin-4-yl)-3-((1S,4R)-4-((3-((S)-1,2-dimethylpyrrolidin-2-yl)-[1,2,4]triazolo[4,3-a]pyridin-6-yl)oxy)-1,2,3,4-tetrahydronaphthalen-1-yl)urea] | 1 to 5 nM
16 | 1 to 10 nM | COCc1nc(NC(=O)N[C@H]2CC[C@@H](Oc3ccc4nnc([C@]5(C)CCCN5C)n4c3)c3ccccc32)cc(C(C)(C)C)n1 [Example 43, 1-(6-(tert-Butyl)-2-(methoxymethyl)pyrimidin-4-yl)-3-((1S,4R)-4-((3-((S)-1,2-dimethylpyrrolidin-2-yl)-[1,2,4]triazolo[4,3-a]pyridin-6-yl)oxy)-1,2,3,4-tetrahydronaphthalen-1-yl)urea] | 1 to 5 nM
17 | < 1 nM | CN1CCC[C@@]1(C)c1nnc2ccc(O[C@@H]3CC[C@H](NC(=O)Nc4cc(C(C)(C)C)ccn4)c4ccccc43)cn12 [Example 44, 1-(4-(tert-Butyl)pyridin-2-yl)-3-((1S,4R)-4-((3-((S)-1,2-dimethylpyrrolidin-2-yl)-[1,2,4]triazolo[4,3-a]pyridin-6-yl)oxy)-1,2,3,4-tetrahydronaphthalen-1-yl)urea] | 1 to 5 nM
18 | < 1 nM | C[C@H]1CCCCN1c1nnc2ccc(O[C@@H]3CC[C@H](NC(=O)Nc4cc(C(C)(C)C)ncn4)c4ccccc43)cn12 [Example 45, 1-(6-(tert-Butyl)pyrimidin-4-yl)-3-((1S,4R)-4-((3-((S)-2-methylpiperidin-1-yl)-[1,2,4]triazolo[4,3-a]pyridin-6-yl)oxy)-1,2,3,4-tetrahydronaphthalen-1-yl)urea] | 1 to 5 nM

— patent US10364245B2 (CHIESI FARMACEUTICI S.p.A., priority 2017, dated 2019)
